The compounds below were run against T1, Eukaryotic elongation factor 2 kinase (Homo sapiens, UniProt O00418) (assay: Kinase assay).
T1 sequence (O00418 whole entry): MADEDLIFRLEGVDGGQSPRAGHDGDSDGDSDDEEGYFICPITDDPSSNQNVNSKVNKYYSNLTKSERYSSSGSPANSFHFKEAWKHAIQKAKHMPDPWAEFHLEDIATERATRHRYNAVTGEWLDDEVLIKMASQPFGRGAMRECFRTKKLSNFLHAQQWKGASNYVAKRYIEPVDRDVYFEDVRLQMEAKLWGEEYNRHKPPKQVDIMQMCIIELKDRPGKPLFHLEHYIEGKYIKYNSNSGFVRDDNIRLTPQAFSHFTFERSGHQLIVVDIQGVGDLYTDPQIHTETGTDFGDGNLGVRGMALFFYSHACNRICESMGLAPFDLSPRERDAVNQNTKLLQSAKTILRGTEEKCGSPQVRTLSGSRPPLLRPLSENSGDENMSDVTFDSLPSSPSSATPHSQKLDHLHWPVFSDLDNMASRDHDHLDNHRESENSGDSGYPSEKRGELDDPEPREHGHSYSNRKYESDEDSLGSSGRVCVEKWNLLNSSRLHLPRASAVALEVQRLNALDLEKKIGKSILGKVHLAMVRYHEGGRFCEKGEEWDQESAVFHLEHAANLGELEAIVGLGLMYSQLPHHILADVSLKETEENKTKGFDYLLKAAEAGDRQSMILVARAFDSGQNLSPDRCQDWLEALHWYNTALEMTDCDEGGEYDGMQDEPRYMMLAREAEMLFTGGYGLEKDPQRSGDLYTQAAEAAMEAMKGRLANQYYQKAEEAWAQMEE
Description: WT eEF-2K (2 nM) was preincubated with various concentrations of inhibitors (0-1000 uM) in assay buffer containing CaCl2 (150 uM), calmodulin (1 uM), triton X-100 (0.01%), and peptide substrate (50 uM) for 60 min. The reactions were started by addition of [gamma-P32]-ATP (100 uM, specific activity = 1000 cpm/pmol).

IC50 [µM] | Compound
30 | N#CC1C(=O)NC(=O)C(C#N)C1c1ccc(Cl)c(Cl)c1 (stereo unspecified) [4-(3,4-dichlorophenyl)-2,6-dioxopiperidine-3,5-dicarbonitrile (2)]
25 | COc1cccc(C2C(C#N)C(=O)NC(=O)C2C#N)c1 (stereo unspecified) [4-(3-methoxyphenyl)-2,6-dioxo-3,5-piperidinedicarbonitrile (MDP)]
57 | N#CC1C(=O)NC(=O)C(C#N)C1c1c(Cl)cccc1Cl (stereo unspecified) [4‐(2,6‐dichlorophenyl)‐2,6‐dioxopiperidine‐3,5‐ dicarbonitrile (5)]
33 | Cc1ccccc1C1C(C#N)C(=O)NC(=O)C1C#N (stereo unspecified) [4‐(2‐methylphenyl)‐2,6‐dioxopiperidine‐3,5‐ dicarbonitrile (1)]
66 | N#CC1C(=O)NC(=O)C(C#N)C1c1cccc(O)c1 (stereo unspecified) [4‐(3‐hydroxyphenyl)‐2,6‐dioxopiperidine‐3,5‐ dicarbonitrile (4)]
46 | Cc1ccc(C2C(C#N)C(=O)NC(=O)C2C#N)cc1 (stereo unspecified) [4‐(4‐methylphenyl)‐2,6‐dioxopiperidine‐3,5‐ dicarbonitrile (3)]
